Laboratory results: ChEMBL document CHEMBL1132048, “Optimisation of the P2 pharmacophore in a series of thrombin inhibitors: ion-dipole interactions with lysine 60G” (Bioorg Med Chem Lett, 1999)

Molecular target: Prothrombin (Homo sapiens, UniProt P00734)
Experiment: Inhibition of human thrombin (in vitro)
`CC1(C)CNc2c(cccc2S(=O)(=O)N[C@@H](Cc2nc3ccccc3s2)C(=O)N2CCC(CCCl)CC2)C1` showed a Ki of 93 nM.
Work on `CC1(C)CNc2c(cccc2S(=O)(=O)N[C@@H](Cc2nc3ccccc3s2)C(=O)N2CCN(CCO)CC2)C1` yielded a Ki of 350 nM.
With `CC1(C)CNc2c(cccc2S(=O)(=O)N[C@@H](Cc2nc3ccccc3s2)C(=O)N2CCC(CCC(=O)O)CC2)C1` the Ki was 7830 nM.
With `CCNC(=O)NCCC1CCN(C(=O)[C@H](Cc2nc3ccccc3s2)NS(=O)(=O)c2cccc3c2NCC(C)(C)C3)CC1` the Ki was 65 nM.
Work on `CNC(=O)NCCC1CCN(C(=O)[C@H](Cc2nc3ccccc3s2)NS(=O)(=O)c2cccc3c2NCC(C)(C)C3)CC1` yielded a Ki of 24 nM.
With `CCCCNC(=O)NCCC1CCN(C(=O)[C@H](Cc2nc3ccccc3s2)NS(=O)(=O)c2cccc3c2NCC(C)(C)C3)CC1` the Ki was 182 nM.
`CN(C)C(=O)NCCC1CCN(C(=O)[C@H](Cc2nc3ccccc3s2)NS(=O)(=O)c2cccc3c2NCC(C)(C)C3)CC1` gave a Ki of 1000 nM.
With `CC1(C)CNc2c(cccc2S(=O)(=O)N[C@@H](Cc2nc3ccccc3s2)C(=O)N2CCC(CCN)CC2)C1` the Ki was 1180 nM.
Work on `CC1(C)CNc2c(cccc2S(=O)(=O)N[C@@H](Cc2nc3ccccc3s2)C(=O)N2CCC(CCF)CC2)C1` yielded a Ki of 26 nM.
Work on `CC1(C)CNc2c(cccc2S(=O)(=O)N[C@@H](Cc2nc3ccccc3s2)C(=O)N2CCC(CCNC(=O)OC(C)(C)C)CC2)C1` yielded a Ki of 52 nM.
Compound `CCC1CCN(C(=O)[C@H](Cc2nc3ccccc3s2)NS(=O)(=O)c2cccc3c2NCC(C)(C)C3)CC1` has a Ki of 240 nM.
`CN(C)CCC1CCN(C(=O)[C@H](Cc2nc3ccccc3s2)NS(=O)(=O)c2cccc3c2NCC(C)(C)C3)CC1` gave a Ki of 38300 nM.
`CC(=O)NCCC1CCN(C(=O)[C@H](Cc2nc3ccccc3s2)NS(=O)(=O)c2cccc3c2NCC(C)(C)C3)CC1` gave a Ki of 654 nM.
Work on `CNC(=O)OCCC1CCN(C(=O)[C@H](Cc2nc3ccccc3s2)NS(=O)(=O)c2cccc3c2NCC(C)(C)C3)CC1` yielded a Ki of 38 nM.
Compound `CNS(=O)(=O)NCCC1CCN(C(=O)[C@H](Cc2nc3ccccc3s2)NS(=O)(=O)c2cccc3c2NCC(C)(C)C3)CC1` has a Ki of 119 nM.
Compound `CC1(C)CNc2c(cccc2S(=O)(=O)N[C@@H](Cc2nc3ccccc3s2)C(=O)N2CCC(CCO)CC2)C1` has a Ki of 79 nM.
With `COC(=O)NCCC1CCN(C(=O)[C@H](Cc2nc3ccccc3s2)NS(=O)(=O)c2cccc3c2NCC(C)(C)C3)CC1` the Ki was 56 nM.

Test system: not listed separately
Experiment: pKa was determined
Type: physicochemical
Compound `NCCCC[C@H](N)C(=O)O` [LYSINE] has a pKa of 10.2.
